# Laboratory results published in publication PMC6161602, “Synthesis and characterisation of (Z)-styrylbenzene derivatives as potential selective anticancer agents” (Journal of Enzyme Inhibition and Medicinal Chemistry, 2018).
# Key:
# L-02 normal liver cell = experiment: MTT cell growth inhibition assay, L-02 (normal); assay type: cell-based, human; conditions: Homo sapiens, 48 h incubation, L-02 normal cells
# Description: (§1) All human cell lines were used in this study. MGC-803 late-stage differentiation gastric cancer cell, A549 lung cancer cell, HepG2 hepatoma cell, AGS gastric cancer cell, BEL-7402 liver cancer cell, HCT-116 colorectal cancer cell, HeLa cervical cancer cell, SGC-7901 early differentiation gastric cancer cell, L-02 normal liver cell, MCF-7 breast cancer cell, and MCF-10A normal breast cell were initially purchased from American Type Culture Collection (ATCC, Manassas, VA, USA). RPMI-1640 media, Dulbecco’s modified Eagle’s medium (DMEM), and foetal bovine serum (FBS) were provided from Gibco Company (Grand Island, NY, USA). The cells were maintained in DMEM or RPMI-1640, supplemented with 10% FBS, 100 IU/mL penicillin and […] (Grand Island, NY, USA), and at 37 °C in a humidified atmosphere containing 5% CO2.
# (§2) Cells were plated in 96-well plates at a density of 30–40% to ensure exponential growth throughout the experimental period, and then allowed to adhere for 1 day[21]. Next, the cells were treated with four serial concentrations (1, 10, 50, and 100 µM) of each compound. Taxol, CA-4, and CA-4P (phosphorylated form of CA-4) were used as positive controls. After 48 h incubation, MTT solution was added to each well at a final concentration of 2 mg/mL, and incubated for an additional 4 h. Next, the MTT solution was removed and 150 µL of dimethyl sulphoxide (DMSO)/well was added (Sigma-Aldrich, St Louis, MO, USA). The plates were shaken vigorously at RT to ensure complete solubilisation, and absorption at 492 nm was determined.
# (§3) According to standard protocol, preliminary in vitro anti-proliferative activities of the synthesised compounds were evaluated by MTT assay, using nine human cancer cell lines (MGC-803, A549, HepG2, AGS, BEL-7402, HCT116, HeLa, SGC-7901, and MCF-7) and two normal human cell lines (L-02 and MCF-10A), and compared with those of CA-4, CA-4P, and taxol.
# [1] = test system: HeLa cervical cancer cell; experiment: MTT cell growth inhibition assay, HeLa; assay type: cell-based, human; conditions: Homo sapiens, 48 h incubation
# Description: as §1, §2, §3
# BEL-7402 cells = experiment: MTT cell growth inhibition assay, BEL-7402; assay type: cell-based, human; conditions: Homo sapiens; MTT, 48 h incubation, Bel-7402
# Description: as §1, §2, §3
# A549 lung cancer cell = experiment: MTT cell growth inhibition assay, A549; assay type: cell-based, human; conditions: Homo sapiens; MTT, 48 h incubation, A549
# Description: as §1, §2, §3
# [2] = test system: nine human cancer cell lines (MGC-803, A549, HepG2, AGS, BEL-7402, HCT116, HeLa, SGC-7901, and MCF-7); experiment: MTT assay, panel of cell lines (result in words); assay type: cell-based; conditions: against all nine cancer cell lines
# Description: as §1, §2, §3
# AGS cells = experiment: MTT cell growth inhibition assay, AGS; assay type: cell-based, human; conditions: Homo sapiens; MTT, 48 h incubation, AGS
# Description: as §1, §2, §3
# HepG2 hepatoma cell = experiment: MTT cell growth inhibition assay, HepG-2; assay type: cell-based, human; conditions: Homo sapiens, HepG2; MTT, 48 h incubation, HepG-2
# Description: as §1, §2, §3
# HCT116 cells = experiment: MTT cell growth inhibition assay, HCT116; assay type: cell-based, human; conditions: Homo sapiens, HCT-116; MTT, 48 h incubation, HCT116
# Description: as §1, §2, §3
# [3] = test system: MCF-10A normal breast cell; experiment: MTT cell growth inhibition assay, MCF-10A (normal); assay type: cell-based, human; conditions: Homo sapiens, 48 h incubation, MCF-10A normal cells
# Description: as §1, §2, §3
# [4] = test system: SGC-7901 early differentiation gastric cancer cell; experiment: MTT cell growth inhibition assay, SGC-7901; assay type: cell-based, human; conditions: Homo sapiens, 48 h incubation
# Description: as §1, §2, §3
# MGC-803 cells = experiment: MTT cell growth inhibition assay, MGC-803; assay type: cell-based, human; conditions: Homo sapiens, MTT, 48 h incubation, MGC-803
# Description: as §1, §2, §3
# MCF-7 breast cancer cell = experiment: MTT cell growth inhibition assay, MCF-7; assay type: cell-based, human; conditions: Homo sapiens, MCF7; MTT, 48 h incubation, MCF-7
# Description: as §1, §2, §3
# HeLa cells = test system: HeLa cells; design: method as in PMID 27887843; conditions: printed in Figure 1, previous experiment ref 2; cited from earlier work
smiles,measurement,setting,value
"COc1cc(/C=C(\C#N)c2cc(OC)c(OC)c(OC)c2)cc(OC)c1OC [Compound 6e, (Z)-2,3-Bis(3,4,5-trimethoxyphenyl)acrylonitrile]",IC50,L-02 normal liver cell,70.6 ± 7.65 µM
same,IC50,[1],> 100 µM
same,IC50,BEL-7402 cells,31.2 ± 2.01 µM
same,IC50,A549 lung cancer cell,> 100 µM
same,in vitro anticancer activity,[2],weak anticancer activity
same,IC50,AGS cells,44.6 ± 9.11 µM
same,IC50,HepG2 hepatoma cell,> 100 µM
same,IC50,HCT116 cells,32.1 ± 5.25 µM
same,IC50,[3],15.6 ± 2.45 µM
same,IC50,[4],> 100 µM
same,IC50,"MGC-803 cells; MGC-803, 48 h",> 100 µM
same,IC50,MCF-7 breast cancer cell,32.9 ± 17.6 µM
same,melting point,,84 to 86 °C
"Oc1ccc(/C=C/c2cc(O)cc(O)c2)cc1 [Resveratrol, (E)-3,5,4′-trihydroxystilbene]",IC50,HeLa cells,120 µM
COc1cc(/C(C#N)=C/c2ccc(Oc3ccccc3)cc2)cc(OC)c1OC [Compound 6b],IC50,L-02 normal liver cell,> 100 µM
same,IC50,[1],> 100 µM
same,IC50,BEL-7402 cells,> 100 µM
same,IC50,A549 lung cancer cell,> 100 µM
same,in vitro anticancer activity,[2],extremely poor
same,IC50,AGS cells,> 100 µM
same,IC50,HepG2 hepatoma cell,> 100 µM
same,IC50,HCT116 cells,> 100 µM
same,IC50,[3],> 100 µM
same,IC50,[4],> 100 µM
same,IC50,"MGC-803 cells; MGC-803, 48 h",> 100 µM
same,IC50,MCF-7 breast cancer cell,> 100 µM
same,melting point,,92 to 94 °C
"COc1cc(/C(C#N)=C/c2ccc([N+](=O)[O-])cc2)cc(OC)c1OC [Compound 6a, (Z)-3-(4-Nitrophenyl)-2-(3,4,5-trimethoxyphenyl)acrylonitrile]",IC50,L-02 normal liver cell,> 100 µM
same,IC50,[1],> 100 µM
same,IC50,BEL-7402 cells,> 100 µM
same,IC50,A549 lung cancer cell,> 100 µM
same,in vitro anticancer activity,[2],extremely poor
same,IC50,AGS cells,> 100 µM
same,IC50,HepG2 hepatoma cell,> 100 µM
same,IC50,HCT116 cells,> 100 µM
same,IC50,[3],> 100 µM
same,IC50,[4],> 100 µM
same,IC50,"MGC-803 cells; MGC-803, 48 h",> 100 µM
same,IC50,MCF-7 breast cancer cell,> 100 µM
same,melting point,,174 to 176 °C
"COc1cccc(/C=C(\C#N)c2cc(OC)c(OC)c(OC)c2)c1 [Compound 6c, (Z)-3-(3-Methoxyphenyl)-2-(3,4,5-trimethoxyphenyl)acrylonitrile]",IC50,L-02 normal liver cell,> 100 µM
same,IC50,[1],> 100 µM
same,IC50,BEL-7402 cells,> 100 µM
same,IC50,A549 lung cancer cell,> 100 µM
same,in vitro anticancer activity,[2],extremely poor
same,IC50,AGS cells,> 100 µM
same,IC50,HepG2 hepatoma cell,> 100 µM
same,IC50,HCT116 cells,> 100 µM
same,IC50,[3],> 100 µM
same,IC50,[4],> 100 µM
same,IC50,MGC-803 cells,22.6 ± 9.25 µM
same,IC50,MCF-7 breast cancer cell,65.1 ± 6.64 µM
same,melting point,,144 to 146 °C
"COc1cc(/C(C#N)=C/c2ccccn2)cc(OC)c1OC [Compound 7b, (Z)-3-(Pyridin-2-yl)-2-(3,4,5-trimethoxyphenyl)acrylonitrile]",IC50,L-02 normal liver cell,> 100 µM
same,IC50,[1],> 100 µM
same,IC50,BEL-7402 cells,44.6 ± 32.7 µM
same,IC50,A549 lung cancer cell,> 100 µM
same,in vitro anticancer activity,[2],extremely poor
same,IC50,AGS cells,> 100 µM
same,IC50,HepG2 hepatoma cell,> 100 µM
same,IC50,HCT116 cells,> 100 µM
same,IC50,[3],33.4 ± 17.4 µM
same,IC50,[4],> 100 µM
same,IC50,"MGC-803 cells; MGC-803, 48 h",> 100 µM
same,IC50,MCF-7 breast cancer cell,16 ± 5.67 µM
same,melting point,,128 to 130 °C
